Assay [1] concerns MIA PaCa-2 cells. Put plainly: In-vitro anti-proliferative activity on MIA PaCa-2 cells. As to conditions: Homo sapiens, 72 h after dosing, intracellular ATP content. In kind it is cell-based. The protocol: MIA PaCa-2 cells were seeded on a 384-well plate at 3000 cells/well. After overnight adherence culture, DMSO or the compounds serially diluted 1:5 from 5 μM were added. The viability was assessed 72 h after dosing by measuring the intracellular ATP content. The inhibition percentage of viable cells by the compounds was calculated by comparing with the DMSO group, and the IC50 value was calculated.

The subject of assay [2] is HT29 subcutaneous xenograft tumor. Nature of the assay: Mouse HT29 subcutaneous xenograft tumor model. As to conditions: for TGI: day 18, nude mouse HT29 xenograft; for Tumor volume on day 1 of treatment (mm^3) / Tumor volume on day 18 of treatment (mm^3): nude mouse HT29 xenograft. In kind it is in vivo. As to the method: HT29 is a colon cancer cell. Each nude mouse was grafted subcutaneously with 5×10^6 HT29 cells. When the tumor grew to 100-200 mm^3, the compound was administered orally once a day alone or in combination with 15 mg/kg of gemcitabine injected intraperitoneally once a week, and the tumor volume was measured twice a week and at the end of treatment. Tumor growth inhibition of the compound was calculated according to the following equation: tumor growth inhibition (TGI)=1−(tumor volume on day 18 in treatment group−tumor volume on day 1 in treatment group)/(tumor volume on day 18 in vehicle control group−tumor volume on day 1 in treatment group).

Assay [3] deals with MIA PaCa-2 cells. Put plainly: In-vitro anti-proliferative activity in combination with gemcitabine on MIA PaCa-2 cells. In kind it is cell-based. As to conditions: with 20 nM gemcitabine, 72 h after dosing, intracellular ATP content. The protocol: MIA PaCa-2 cells were seeded on a 384-well plate at 3000 cells/well, and 20 nM gemcitabine was added. After overnight adherence culture, DMSO or the compounds serially diluted 1:5 from 100 nM were added. The viability was assessed 72 h after dosing by measuring the intracellular ATP content. The inhibition percentage of viable cells by the compounds was calculated by comparing with the DMSO group, and the IC50 value was calculated.

Assay [4] deals with recombinant protein Wee-1 (Homo sapiens, UniProt P30291). Put plainly: Inhibition of enzymatic activity of recombinant protein Wee-1 (HTRF). In kind it is biochemical. In short, it runs like this: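 Serially diluted compounds (up to 200 nM, 1:5) preincubated with recombinant Wee-1 in kinase buffer 30 min at 37° C, then Fluorescein-PolyGAT, ATP and substrate added; 90 min at room temperature. HTRF detection after 60 min (ex 340 nm, em 495/520 nm); 520/495 ratio versus DMSO gave % inhibition and IC50.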

The mark [5] stands for this setting: 30 mg/kg orally once a day in combination with 15 mg/kg of gemcitabine i.p. once a week.
The mark [6] stands for this setting: monotherapy, 30 mg/kg orally once a day.

What is called IC50 is the point on the concentration scale where inhibition reaches its midpoint.

recombinant protein Wee-1, sequence (P30291 whole entry): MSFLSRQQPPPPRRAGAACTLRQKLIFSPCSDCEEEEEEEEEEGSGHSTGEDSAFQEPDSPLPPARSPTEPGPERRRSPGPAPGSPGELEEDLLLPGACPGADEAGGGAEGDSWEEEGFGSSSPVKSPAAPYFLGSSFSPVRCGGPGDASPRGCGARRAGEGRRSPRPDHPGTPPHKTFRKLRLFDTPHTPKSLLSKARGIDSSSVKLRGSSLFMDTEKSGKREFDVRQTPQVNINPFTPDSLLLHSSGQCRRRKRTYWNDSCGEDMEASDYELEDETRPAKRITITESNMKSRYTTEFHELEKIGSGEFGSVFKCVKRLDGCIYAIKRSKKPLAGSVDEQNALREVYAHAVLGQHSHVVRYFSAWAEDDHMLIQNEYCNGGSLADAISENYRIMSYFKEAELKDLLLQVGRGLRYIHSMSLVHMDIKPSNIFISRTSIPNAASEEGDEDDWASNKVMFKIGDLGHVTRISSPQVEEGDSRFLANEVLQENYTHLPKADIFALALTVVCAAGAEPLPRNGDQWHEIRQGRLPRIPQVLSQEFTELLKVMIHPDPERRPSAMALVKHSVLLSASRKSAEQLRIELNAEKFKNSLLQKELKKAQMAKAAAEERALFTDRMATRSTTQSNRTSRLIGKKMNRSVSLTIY

For the compound `CN1Cc2cc(Nc3ncc(C#N)c(Nc4cccc(N=S(C)(C)=O)n4)n3)cc3c2[C@H](CCC3)C1` (single isomer, unassigned) [Compound 2], the values for the IC50 in assay [1], in assay [3] and in assay [4] were 259 nM, 0.245 nM and ≤ 10 nM, respectively. Besides, the TGI in assay [2] (setting [5]) was determined as 109%; in assay [2] (setting [6]), 99%. Further, the “Tumor volume on day 1 of treatment (mm^3)” value in assay [2] (setting [5]) and in assay [2] (setting [6]) was 112 mm^3 in each case. The “Tumor volume on day 18 of treatment (mm^3)” value in assay [2] (setting [5]) amounted to 11 mm^3; in assay [2] (setting [6]), 115 mm^3.

For the origin of these results see US12655127B2, “Fused ring compound as Wee-1 inhibitor” (WIGEN BIOMEDICINE TECHNOLOGY (SHANGHAI) CO., LTD., priority 2021, dated 2026).
